From PubChem BioAssay AID1963871 (Molecular Pharmacology Branch, DTP, NCI, 2024)

Test system: KRAS-mutant PDC multicell tumor spheroid viability
Experiment: Anticancer human tumor 521955-158-R2-J5-PDC patient-derived pancreatic carcinoma cell line growth inhibition [KRAS2]
Conditions: for IC50: curve of first compound; for viability, T/C: stronger effect = lower value
Summary of the method: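 KRAS-mutant tumor cells were grown as spheroids with HUVEC endothelial cells and human MSCs as stroma. Targeted agents were tested alone and with KRAS pathway inhibitors. Doses started at or near clinical Cmax, or 10 microM, descending half-log.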

[1] = second compound 0.1 µM, first compound 0.01 µM
[2] = second compound 0.1 µM, first compound 0.0316 µM
[3] = second compound 0.1 µM, first compound 0.1 µM
[4] = second compound 0.1 µM, first compound 0.316 µM
[5] = second compound 0.1 µM, first compound 1 µM
[6] = second compound 0.1 µM, first compound 3.16 µM
[7] = second compound 0.316 µM, first compound 0.01 µM
[8] = second compound 0.316 µM, first compound 0.0316 µM
[9] = second compound 0.316 µM, first compound 0.1 µM
[10] = second compound 0.316 µM, first compound 0.316 µM
[11] = second compound 0.316 µM, first compound 1 µM
[12] = second compound 0.316 µM, first compound 3.16 µM
[13] = second compound 1 µM, first compound 0.01 µM
[14] = second compound 1 µM, first compound 0.0316 µM
[15] = second compound 1 µM, first compound 0.1 µM
[16] = second compound 1 µM, first compound 0.316 µM
[17] = second compound 1 µM, first compound 1 µM
[18] = second compound 1 µM, first compound 3.16 µM
[19] = second compound 3.16 µM, first compound 0.01 µM
[20] = second compound 3.16 µM, first compound 0.0316 µM
[21] = second compound 3.16 µM, first compound 0.1 µM
[22] = second compound 3.16 µM, first compound 0.316 µM
[23] = second compound 3.16 µM, first compound 1 µM
[24] = second compound 3.16 µM, first compound 3.16 µM
[25] = second compound 10 µM, first compound 0.01 µM
[26] = second compound 10 µM, first compound 0.0316 µM
[27] = second compound 10 µM, first compound 0.1 µM
[28] = second compound 10 µM, first compound 0.316 µM
[29] = second compound 10 µM, first compound 1 µM
[30] = second compound 10 µM, first compound 3.16 µM
[31] = second compound 0.1 µM, first compound 10 µM
[32] = second compound 0.316 µM, first compound 10 µM
[33] = second compound 1 µM, first compound 10 µM
[34] = second compound 3.16 µM, first compound 10 µM
[35] = second compound 10 µM, first compound 10 µM
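Also: viability read after seven days of drug exposure.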

CC1COCCN1c1cc(-c2ccnn2C)c2ccnc(-c3ccn[nH]3)c2n1 (stereo not given) + CNCc1ccccc1-c1csc(C(C)Nc2nc(C)nc3cc(OC)c(OC)cc23)c1
IC50 (second compound 0.1 µM): 0.0305 µM | IC50 (second compound 0.316 µM): 0.0238 µM | IC50 (second compound 1 µM): 0.0221 µM | IC50 (second compound 3.16 µM): < 0.01 µM | IC50 (second compound 10 µM): < 0.01 µM | viability, T/C [1]: 101% | viability, T/C [2]: 48.3% | viability, T/C [3]: 11.4% | viability, T/C [4]: 13.6% | viability, T/C [5]: 20.8% | viability, T/C [6]: 29.5% | viability, T/C [7]: 95.9% | viability, T/C [8]: 35% | viability, T/C [9]: 12.4% | viability, T/C [10]: 11.7% | viability, T/C [11]: 20.7% | viability, T/C [12]: 25.9% | viability, T/C [13]: 105% | viability, T/C [14]: 25.3% | viability, T/C [15]: 8.4% | viability, T/C [16]: 11.7% | viability, T/C [17]: 21.2% | viability, T/C [18]: 22.9% | viability, T/C [19]: 0.3% | viability, T/C [20]: 0.11% | viability, T/C [21]: 0.07% | viability, T/C [22]: 0.06% | viability, T/C [23]: 0.08% | viability, T/C [24]: 0.33% | viability, T/C [25]: 0.14% | viability, T/C [26]: 0.15% | viability, T/C [27]: 0.13% | viability, T/C [28]: 0.13% | viability, T/C [29]: 0.12% | viability, T/C [30]: 0.22%

CC1OCC2(CCN(c3cnc(Sc4ccnc(N)c4Cl)c(N)n3)CC2)C1N (stereo not given) + CNCc1ccccc1-c1csc(C(C)Nc2nc(C)nc3cc(OC)c(OC)cc23)c1
IC50 (second compound 0.1 µM): > 10 µM | IC50 (second compound 0.316 µM): > 10 µM | IC50 (second compound 1 µM): > 10 µM | IC50 (second compound 3.16 µM): < 0.0316 µM | IC50 (second compound 10 µM): < 0.0316 µM | viability, T/C [2]: 86.5% | viability, T/C [3]: 83.1% | viability, T/C [4]: 85.6% | viability, T/C [5]: 74.4% | viability, T/C [6]: 67% | viability, T/C [31]: 70.7% | viability, T/C [8]: 90.2% | viability, T/C [9]: 85.2% | viability, T/C [10]: 68.5% | viability, T/C [11]: 77.3% | viability, T/C [12]: 75.4% | viability, T/C [32]: 73.1% | viability, T/C [14]: 90.6% | viability, T/C [15]: 83.5% | viability, T/C [16]: 76.8% | viability, T/C [17]: 70% | viability, T/C [18]: 68.4% | viability, T/C [33]: 75% | viability, T/C [20]: 0.27% | viability, T/C [21]: 0.18% | viability, T/C [22]: 0.19% | viability, T/C [23]: 0.2% | viability, T/C [24]: 0.36% | viability, T/C [34]: 0.31% | viability, T/C [26]: 0.15% | viability, T/C [27]: 0.14% | viability, T/C [28]: 0.15% | viability, T/C [29]: 0.13% | viability, T/C [30]: 0.14% | viability, T/C [35]: 0.21%

Cn1nccc1Nc1nccc(-c2cc3c(s2)C(C)(C)N(CCN2CCOCC2)C3=O)n1 + CNCc1ccccc1-c1csc(C(C)Nc2nc(C)nc3cc(OC)c(OC)cc23)c1
IC50 (second compound 0.1 µM): 1.05 µM | IC50 (second compound 0.316 µM): 0.784 µM | IC50 (second compound 1 µM): 0.913 µM | IC50 (second compound 3.16 µM): < 0.0316 µM | IC50 (second compound 10 µM): < 0.0316 µM | viability, T/C [2]: 99.7% | viability, T/C [3]: 84.2% | viability, T/C [4]: 60.7% | viability, T/C [5]: 54.2% | viability, T/C [6]: 36.5% | viability, T/C [31]: 18% | viability, T/C [8]: 98.3% | viability, T/C [9]: 81.4% | viability, T/C [10]: 60.9% | viability, T/C [11]: 49.6% | viability, T/C [12]: 29.4% | viability, T/C [32]: 18.3% | viability, T/C [14]: 103% | viability, T/C [15]: 100% | viability, T/C [16]: 71.9% | viability, T/C [17]: 47.7% | viability, T/C [18]: 22.3% | viability, T/C [33]: 0.54% | viability, T/C [20]: 0.21% | viability, T/C [21]: 0.22% | viability, T/C [22]: 0.19% | viability, T/C [23]: 0.51% | viability, T/C [24]: 0.08% | viability, T/C [34]: 0.36% | viability, T/C [26]: 0.11% | viability, T/C [27]: 0.15% | viability, T/C [28]: 0.14% | viability, T/C [29]: 0.14% | viability, T/C [30]: 0.19% | viability, T/C [35]: 0.2%

CC(=O)OC12COC1CC(O)C1(C)C(=O)C(O)C3=C(C)C(OC(=O)C(O)C(NC(=O)OC(C)(C)C)c4ccccc4)CC(O)(C(OC(=O)c4ccccc4)C21)C3(C)C (stereo not given) + COc1cc2nc(C)nc(NC(C)c3cc(N)cc(C(F)(F)F)c3)c2cc1OC1CCOC1
IC50 (second compound 0.1 µM): < 0.01 µM | IC50 (second compound 0.316 µM): < 0.01 µM | IC50 (second compound 1 µM): < 0.01 µM | IC50 (second compound 3.16 µM): < 0.01 µM | IC50 (second compound 10 µM): < 0.01 µM | viability, T/C [1]: 25% | viability, T/C [2]: 13.7% | viability, T/C [3]: 14.5% | viability, T/C [4]: 12.4% | viability, T/C [5]: 18.4% | viability, T/C [6]: 19% | viability, T/C [7]: 17.5% | viability, T/C [8]: 14.1% | viability, T/C [9]: 13.6% | viability, T/C [10]: 13.2% | viability, T/C [11]: 15.3% | viability, T/C [12]: 20.2% | viability, T/C [13]: 18.6% | viability, T/C [14]: 12.9% | viability, T/C [15]: 14% | viability, T/C [16]: 14.1% | viability, T/C [17]: 19.4% | viability, T/C [18]: 26.4% | viability, T/C [19]: 14% | viability, T/C [20]: 14.3% | viability, T/C [21]: 12.1% | viability, T/C [22]: 12.5% | viability, T/C [23]: 17.1% | viability, T/C [24]: 19.6% | viability, T/C [25]: 18.1% | viability, T/C [26]: 13.4% | viability, T/C [27]: 14.3% | viability, T/C [28]: 14.1% | viability, T/C [29]: 14.3% | viability, T/C [30]: 18.9%
